Assay results reported in patent publication US20220331217A1, “Hair restructuring association comprising a quaternary ammonium salt and a sulpho-derivative of vegetable fatty acids” (Greengredients S.r.l., priority 2021, published 2022).

Assay: During breakage test combing (weight of broken hairs after 20 combings)
Details: bleached strands, treated at 15%, combed 20 times, vs bleached untreated reference
Excerpt: All samples (hair strands) have been combed for 20 times and broken hairs have been weighted (with 0.0001 g accuracy, METTLER TOLEDO EXCELLENCE analytical scale).

NCCCOCCOCCOCCCN.O=C(O)C=CC(=O)O.O=C(O)C=CC(=O)O [bis-aminopropyl diglycol dimaleate]
reduction in broken hairs: 50.00%
